From US12485121B2, “Antiviral agents for the treatment and prevention of HIV infection” (Pharmasyntez, Joint Stock Company, priority 2020, dated 2025)

System: HIV-1 subtype A strain 12RU 69831
Assay: Inhibition of HIV-1 reproduction / protection of infected MT-4 cells (living cell concentration, p24 production)
Assay type: cell-based
Details: Human immunodeficiency virus 1, MT4, MT-4 cells infected with HIV-1 at a constant virus dose of 300 CCID50; read-out: Activity against HIV-1 12RU 69831 strain (subtype A)
Procedure: Evaluation of HIV reproduction inhibition/protection of human cells by anti-HIV products of the present invention was conducted by measuring change in living cells concentration in experimental wells with MT-4 cells infected with HIV-1, as well as by the production of viral protein p24 with adding different concentrations of compounds according to the present invention. Antiviral activity of products against HIV-1 subtype A strain 12RU 69831 was determined, when the cell culture was infected with a constant dose of virus, corresponding to 300 CCID50.

IC50 [µM]	Compound
10.5	Cc1cc(C#N)cc(C)c1Oc1nc(Nc2ccc(C#N)cc2)nc2c1CCN(C(=O)CCl)CC2 [BB0274133, 4-((7-(2-Chloroacetyl)-2-((4-cyanophenyl)amino)-6,7,8,9-tetrahydro-5H-pyrimido[4,5-d]azepine-4-yl)oxy)-3,5-dimethylbenzonitrile]
0.0959	COC(=O)N1CCc2nc(Nc3ccc(C#N)cc3)nc(Oc3c(C)cc(C#N)cc3C)c2CC1 [BB0274134, Methyl 4-(4-cyano-2,6-dimethylphenoxy)-2-((4-4-cyanophenyl)amino)-8,9-dihydro-5H-pyrimido[4,5-d]azepine-7(6H)-carboxylate]
6.13	Cc1cc(C#N)cc(C)c1Oc1nc(Nc2ccc(C#N)cc2)nc2c1CCN(S(C)(=O)=O)CC2 [BB0274135, 4-((2-((4-Cyanophenyl)amino)-7-(methylsulfonyl)-6,7,8,9-tetrahydro-5H-pyrimido[4,5-d]azepine-4-yl)oxy)-3,5-dimethylbenzonitrile]
0.00799	Cc1cc(C#N)cc(C)c1Oc1nc(Nc2ccc(C#N)cc2)nc2c1CN(Cc1ccncc1)CC2 [BB0274137, 4-((2-((4-Cyanophenyl)amino)-6-(pyridine-4-ylmethyl)-5,6,7,8-tetrahydropyrido[4,3-d]pyrimidine-4-yl)oxy)-3,5-dimethylbenzonitrile]
0.00676	Cc1cc(C#N)cc(C)c1Oc1nc(Nc2ccc(C#N)cc2)nc2c1CN(Cc1cccnc1)CC2 [BB0274138, 4-((2-((4-Cyanophenyl)amino)-6-(pyridine-3-ylmethyl)-5,6,7,8-tetrahydropyrido[4,3-d]pyrimidine-4-yl)oxy)-3,5-dimethylbenzonitrile]
27.8	Cc1cc(C#N)cc(C)c1Oc1nc(Nc2ccc(C#N)cc2)nc2c1CN(Cc1ccccc1O)CC2 [BB0274140, 4-((2-((4-Cyanophenyl)amino)-6-(2-hydroxybenzyl)-5,6,7,8-tetrahydropyrido[4,3-d]pyrimidine-4-yl)oxy)-3,5-dimethylbenzonitrile]
174	C#CCOc1ccccc1CN1CCc2nc(Nc3ccc(C#N)cc3)nc(Oc3c(C)cc(C#N)cc3C)c2C1 [BB0274141, 4-((2-((4-Cyanophenyl)amino)-6-(2-(prop-2-in-1-yloxy)benzyl)-5,6,7,8-tetrahydropyrido[4,3-d]pyrimidine-4-yl)oxy)-3,5-dimethylbenzonitrile]
0.71	Cc1cc(C#N)cc(C)c1Oc1nc(Nc2ccc(C#N)cc2)nc2c1CCN(CCC(=O)O)CC2 [BB0274143, 3-(4-(4-Cyano-2,6-dimethylphenoxy)-2-((4-cyanophenyl)amino)-8,9-dihydro-5H-pyrimido[4,5-d]azepine-7(6H)-yl)propanoic acid]
1.63	C=CCN1CCc2nc(Nc3ccc(C#N)cc3)nc(Oc3c(C)cc(C#N)cc3C)c2CC1 [BB0274144, 4-((7-Allyl-2-((4-cyanophenyl)amino)-6,7,8,9-tetrahydro-5H-pyrimido[4,5-d]azepine-4-yl)oxy)-3,5-dimethylbenzonitrile]
1.69	CC(=O)N1CCc2nc(Nc3ccc(C#N)cc3)nc(Oc3c(C)cc(C#N)cc3C)c2CC1 [BB0274145, 4-((7-Acetyl-2-((4-cyanophenyl)amino)-6,7,8,9-tetrahydro-5H-pyrimido[4,5-d]azepine-4-yl)oxy)-3,5-dimethylbenzonitrile]
0.0125	Cc1cc(C#N)cc(C)c1Oc1nc(Nc2ccc(C#N)cc2)nc2c1CCN(C(=O)Cn1ccnc1)CC2 [BB0274227, 4-((7-(2-(1H-Imidazole-1-yl)acetyl)-2-((4-cyanophenyl)amino)-6,7,8,9-tetrahydro-5H-pyrimido[4,5-d]azepine-4-yl)oxy)-3,5-dimethylbenzonitrile]
0.0488	Cc1cc(C#N)cc(C)c1Oc1nc(Nc2ccc(C#N)cc2)nc2c1CCN(C(=O)Cn1ccnc1C)CC2 [BB0274236, 4-((2-((4-Cyanophenyl)amino)-7-(2-(methyl-1H-imidazole-1-yl)acetyl)-6,7,8,9-tetrahydro-5H-pyrimido[4,5-d]azepine-4-yl)oxy)-3,5-dimethylbenzonitrile]
